Earlier results, collected in patent US20030118652A1 (priority 2001, published 2003).

Tests used:
[1] = target: cytochrome P450 isoform CYP2D6 (Homo sapiens, UniProt P10635); conditions: (R)- versus (S)-bisoprolol; stated as 'it is believed'
[2] = (R)- versus (S)-bisoprolol
[3] = following administration of racemic bisoprolol; (S)- versus (R)-bisoprolol

cytochrome P450 isoform CYP2D6, sequence (P10635 whole entry, canonical isoform): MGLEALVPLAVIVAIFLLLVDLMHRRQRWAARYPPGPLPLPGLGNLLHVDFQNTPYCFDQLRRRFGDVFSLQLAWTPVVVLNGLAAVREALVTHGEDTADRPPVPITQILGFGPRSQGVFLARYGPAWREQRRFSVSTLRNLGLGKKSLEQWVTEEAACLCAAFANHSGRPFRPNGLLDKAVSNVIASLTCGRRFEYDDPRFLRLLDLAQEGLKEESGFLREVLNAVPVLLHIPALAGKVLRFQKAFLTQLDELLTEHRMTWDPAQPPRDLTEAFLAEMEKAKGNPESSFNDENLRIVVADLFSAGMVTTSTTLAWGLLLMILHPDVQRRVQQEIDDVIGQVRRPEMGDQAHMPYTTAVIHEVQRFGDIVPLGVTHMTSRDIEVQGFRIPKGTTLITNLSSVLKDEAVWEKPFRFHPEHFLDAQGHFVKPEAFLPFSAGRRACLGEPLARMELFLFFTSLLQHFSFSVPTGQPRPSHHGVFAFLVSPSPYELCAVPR

## CC(C)NC[C@@H](O)COc1ccc(COCCOC(C)C)cc1 [(R)-bisoprolol]
[1]
  rate of oxidative metabolism by CYP2D6: greater rate
[2]
  rate of renal clearance: greater

## CC(C)NC[C@H](O)COc1ccc(COCCOC(C)C)cc1 [(S)-bisoprolol]
[3]
  elimination half-life: slightly higher

## CC(C)NCC(O)COc1ccc(COCCOC(C)C)cc1 (racemic) [racemic bisoprolol, 1-[4-[[2-(1-methylethoxy)ethoxy]-methyl]phenoxy]-3-[(1-methylethyl)amino]-2-propanol]
Bailliart et al. 1987
  side effects on the peripheral circulation: adverse side effects on the peripheral circulation
Dorow et al. 1986
  bronchoconstrictor side effects: bronchoconstrictor effects, including wheeziness and breathlessness
Janka et al. 1986, patients with diabetes
  effects on carbohydrate metabolism: effects on carbohydrate metabolism that are deleterious to patients with diabetes
